Laboratory results as given in US4588722A, “N-(4-piperidinyl) bicyclic condensed 2-imidazolamine derivatives” (priority 1984, dated 1986).
Structures can show the parent of a compound that is named as a salt. Where two headings read alike, the source gives them in different places.

Test system: compound 48/80-induced lethality in rats
Test: Protection of rats from compound 48/80-induced lethality
Type: in vivo, rat (male, inbred Wistar strain)
Conditions: Rattus norvegicus, read-out: Compound 48/80 lethality test in rats-ED50
Excerpt: PROTECTION OF RATS FROM COMPOUND 48/80-INDUCED LETHALITY
Compound 48/80, a mixture of oligomers obtained by condensation of 4-methoxy-N-methylbenzeneethanamine and formaldehyde has been described as a potent histamine releasing agent (Int. Arch. Allergy, 13, 336 (1958)). The protection from compound 48/80-induced lethal circulatory collapse appears to be a simple way of evaluating quantitatively the antihistaminic activity of test compounds. Male rats of an inbred Wistar strain, weighing 240-260 g were used in the experiment. After overnight starvation the rats were transferred to conditioned laboratories (temp.=21±1° C., relative humidity=65±5%). The rats were treated subcutaneously or orally with a test compound or with the solvent (NaCl solution, 0.9%). One hour after treatment there was injected intravenously compound 48/80, freshly dissolved in water, at a dose of 0.5 mg/kg (0.2 ml/100 g of body weight). In control experiments, wherein 250 solvent-treated animals were injected with the standard dose of compound 48/80, not more than 2.8% of the animals survived after 4 hours. Survival after 4 hours is therefore considered to be a safe criterion of a protective effect of drug administration.
Said ED50 -values are the values in mg/kg body weight at which the tested compounds protect 50% of the tested animals against compound 48/80-induced lethality.

[1] = test compound subcutaneously or orally (route of each value not given) 1 hour before compound 48/80 0.5 mg/kg intravenously, dose protecting 50% of animals, survival after 4 hours

Row | Compound | ED50 [1] | ED50 (4 h)
1 | CSC(=NC#N)NCCN1CCC(Nc2nc3cccnc3n2Cc2ccc(F)cc2)CC1 [Compound 21, S-methyl N'-cyano-N-[2-[4-[[3-[(4-fluorophenyl)methyl]-3H-imidazo[4,5-b]pyridin-2-yl]amino]-1-piperidinyl]ethyl]carbamimidothioate] | 0.16 mg/kg | –
2 | COc1ccc(CCN2CCC(Nc3nc4ccccc4n3Cc3cnccn3)CC2)cc1 [Compound 13, N-[1-[2:(4-methoxyphenyl)ethyl]-4-piperidinyl]-1-[(2-pyrazinyl)methyl]-1H-benzimidazol-2-amine] | 0.04 mg/kg | –
3 | O.O=c1oc2ccccc2cc1CCN1CCC(Nc2nc3ccccc3n2Cc2ccco2)CC1 [Compound 14, 3-[2-[4-[[1-(2-furanylmethyl)-1H-benzimidazol-2-yl]amino]-1-piperidinyl]ethyl]-2H-1-benzopyran-2-one monohydrate] | 0.08 mg/kg | –
4 | O=c1oc2ccccc2cc1CCN1CCC(Nc2nc3cccnc3n2Cc2ccccn2)CC1 [Compound 7, 3-[2-[4-[[3-(2-pyridinylmethyl)-3H-imidazo[4,5-b]pyridin-2-yl]amino]-1-piperidinyl]ethyl]-2H-1benzopyran-2-one trihydrochloride.dihydrate] | 0.04 mg/kg | –
5 | O=CNCCN1CCC(Nc2nc3ccccc3n2Cc2ccc(F)cc2)CC1 [Compound 45, N-[2-[4-[[1-[(4-fluorophenyl)methyl]-1H-benzimidazol-2-yl]amino]-1-piperidinyl]ethyl]formamide] | 0.08 mg/kg | –
6 | O.O=c1oc2ccccc2cc1CCN1CCC(Nc2nc3ccccc3n2Cc2cccnc2)CC1 [Compound 10, 3-[2-[4-[[1-(3-pyridinylmethyl)-1H-benzimidazol-2-yl]amino]-1-piperidinyl]ethyl]-2H-1-benzopyran-2-one monohydrate] | 0.31 mg/kg | –
7 | CC(=O)Nc1ccccc1C(=O)NCCN1CCC(Nc2nc3ccccc3n2Cc2ccc(F)cc2)CC1 [Compound 51, 2-(acetylamino)-N-[2-[4-[[1-[(4-fluorophenyl)methyl]-1H-benzimidazol-2-yl]amino]-1-piperidinyl]ethyl]benzamide] | 0.16 mg/kg | –
8 | O=c1oc2ccccc2cc1CCN1CCC(Nc2nc3ccccc3n2Cc2cscn2)CC1 [Compound 6, 3-[2-[4-[[1-(4-thiazolylmethyl)-1H-benzimidazol-2-yl]amino]-1-piperidinyl]ethyl]-2H-1-benzopyran-2-one dihydrochloride.sesquihydrate] | 0.16 mg/kg | –
9 | CNC(=O)Nc1ccc(CCN2CCC(Nc3nc4ccccc4n3Cc3ccc(F)cc3)CC2)cc1 [Compound 57, N-[4-[2-[4-[[1-[(4-fluorophenyl)methyl]-1H-benzimidazol-2-yl]amino]-1-piperidinyl]ethyl]phenyl]-N'methylurea] | 0.08 mg/kg | –
10 | Cc1nccn1CCN1CCC(Nc2nc3ccccc3n2Cc2ccc(F)cc2)CC1 [Compound 20, 1-[(4-fluorophenyl)methyl]-N-[1-[2-(2-methyl-1H-imidazol-1-yl)ethyl]-4-piperidinyl]-1H-benzimidazol-2-amine] | 0.31 mg/kg | –
11 | CCOC(=S)NCCN1CCC(Nc2nc3ccccc3n2Cc2ccc(F)cc2)CC1 [Compound 35, ethyl [2-[4-[[1-[(4-fluorophenyl)-methyl]-1H-benzimidazol-2-yl]amino]-1-piperidinyl]ethyl]carbamothioate] | 0.16 mg/kg | –
12 | CCN(CC)C(=S)NCCN1CCC(Nc2nc3ccccc3n2Cc2ccc(F)cc2)CC1 [Compound 32, N,N-diethyl-N'-[2-[4-[[1-[(4-fluorophenyl)methyl]-1H-benzimidazol-2-yl]-amino]-1-piperidinyl]ethyl]thiourea] | 0.16 mg/kg | –
13 | N=C(NCCN1CCC(Nc2nc3ccccc3n2Cc2ccc(F)cc2)CC1)N[N+](=O)[O-] [Compound 23, N-[2-[4-[[1-[(4-fluorophenyl)methyl]-1H-benzimidazol-2-yl]amino]-1-piperidinyl]ethyl]-N'-nitroguanidine] | – | 0.08 mg/kg
14 | CNC(=O)N1CCC(N2CCC(Nc3nc4ccccc4n3Cc3ccc(F)cc3)CC2)CC1 [Compound 36, 4-[[1-(4-fluorophenyl)methyl]-1H-benzimidazol-2-ylamino]-N-methyl-[1,4'-bipiperidine]-1'-carboxamide monohydrate] | 0.16 mg/kg | –
15 | O=c1cc[nH]c(=O)n1CCN1CCC(Nc2nc3ccccc3n2Cc2ccc(F)cc2)CC1 [Compound 5, 3-[2-[4-[[1-[(4-fluorophenyl)methyl]-1H-benzimidazol-2-yl]amino]-1-piperidinyl]ethyl]-2,4-(1H,3H)-pyrimidinedione] | 0.08 mg/kg | –
16 | COC(CNC(=NC#N)NCCN1CCC(Nc2nc3ccccc3n2Cc2ccc(F)cc2)CC1)OC.O=C(O)/C=C/C(=O)O.O=C(O)/C=C/C(=O)O [Compound 24, N"-cyano-N-(2,2-dimethoxyethyl)-N'-[2-[4-[[1-[(4-fluorophenyl)methyl]-1H-benzimidazol-2-yl]amino]-1-piperidinyl]ethyl]guanidine (E)-2-butenedioate(1:2)] | 0.16 mg/kg | –

Row | Compound | ED50 [1] | ED50 (4 h)
17 | CN(C)C(=S)NCCN1CCC(Nc2nc3ccccc3n2Cc2ccc(F)cc2)CC1 [Compound 31] | 0.08 mg/kg | –
18 | OCc1ccc(CN2CCC(Nc3nc4ccccc4n3Cc3ccc(F)cc3)CC2)o1 [Compound 47, 5-[[4-[[1-[(4-fluorophenyl)methyl]-1H-benzimdazol-2-yl]amino]-1-piperidinyl]methyl]-2-furanmethanol] | 0.08 mg/kg | –
19 | COc1ccc(CCN2CCC(Nc3nc4ccccc4n3Cc3cscn3)CC2)cc1 [Compound 17, N-[1-[2-(4-methoxyphenyl)ethyl]-4-piperidinyl]-1-(4-thiazolyl)-methyl)-1H-benzimidazol-2-amine dihydrobromide. dihydrate] | 0.08 mg/kg | –
20 | CN(C)C(=NC#N)NCCN1CCC(Nc2nc3ccccc3n2Cc2ccc(F)cc2)CC1 [Compound 25] | 0.08 mg/kg | –
21 | NNC(=S)NCCN1CCC(Nc2nc3ccccc3n2Cc2ccc(F)cc2)CC1.O [Compound 34, N-[2-[4-[[1-[(4-fluorophenyl)methyl]-1H-benzimidazol-2-yl]amino]-1-piperidinyl]ethyl]hydrazinecarbothioamide monohydrate] | 0.02 mg/kg | –
22 | N#CN=C(NCCN1CCOCC1)NCCN1CCC(Nc2nc3ccccc3n2Cc2ccc(F)cc2)CC1 [Compound 26, N"-cyano-N-[2-[4-[[1-[(4-fluorophenyl)methyl]-1H-benzimidazol-2-yl]-aminol]-1-piperidinyl]ethyl]-N'-[2-(4-morpholinyl)ethyl]guanidine monohydrate] | 0.16 mg/kg | –
23 | CS(=O)(=O)Nc1ccc(CCN2CCC(Nc3nc4ccccc4n3Cc3ccc(F)cc3)CC2)cc1 [Compound 53, N-4-[2-[4-[[1-[(4-fluorophenyl)methyl]-1H-benzimidazol-2-yl]amino]-1-piperidinyl]ethyl] methanesulfonamide monohydrate] | 0.16 mg/kg | –
24 | NC(=O)Nc1ccc(CCN2CCC(Nc3nc4ccccc4n3Cc3ccc(F)cc3)CC2)cc1 [Compound 56] | 0.04 mg/kg | –
25 | CCN(C(C)=O)c1ccccc1C(=O)NCCN1CCC(Nc2nc3ccccc3n2Cc2ccc(F)cc2)CC1 [Compound 52, 2-(acetylethylamino)-N-[2-[4-[[(1-[(4-fluorophenyl)methyl]-1H-benzimidazol-2yl]amino]-1-piperidinyl]ethyl]benzamide (E) -2-butenedioate(1:2)] | 0.31 mg/kg | –
26 | Fc1ccc(Cn2c(NC3CCN(Cc4ccc(CSCCNc5ncccn5)o4)CC3)nc3ccccc32)cc1 [Compound 50] | 0.16 mg/kg | –
27 | O=c1oc2ccccc2cc1CCN1CCC(Nc2nc3cccnc3n2Cc2ccco2)CC1 [Compound 15, 3-[2-[4-[[3-(2-furanylmethyl)-3H-imidazo[4,5-b]pyridin-2-yl]amino]-1-piperidinyl]ethyl]-2H-1-benzopyran-2-one] | 0.01 mg/kg | –
28 | COc1ccc(CCN2CCC(Nc3nc4ncccc4n3Cc3ccc(F)cc3)CC2)cc1 [Compound 2, 1-[(4-fluorophenyl)methyl]-N-[1-[2-(4-methoxyphenyl)ethyl]-4-piperidinyl]-1H-imidazo[4,5-b]pyridin-2-amine] | 0.08 mg/kg | –
29 | O=c1oc2ccccc2cc1CCN1CCC(Nc2nc3ccccc3n2Cc2ccccn2)CC1 [Compound 9, 3-[2-[4-[[1-(2-pyridinylmethyl)-1H-benzimidazol-2-yl]amino]-1-piperidinyl]ethyl]-2H-1-benzopyran-2-one dihydrochloride.dihydrate] | 0.08 mg/kg | –
30 | CNC(=S)N1CCCC(N2CCC(Nc3nc4ccccc4n3Cc3ccc(F)cc3)CC2)C1 (centres unmarked) [Compound 37, 4-[[1-[(4-fluorophenyl)methyl]-1H-benzimidazol-2-yl]amino]-N-methyl-[1,3'-bipiperidine]-1'-carbothioamide] | 0.08 mg/kg | –
31 | O=c1oc2ccccc2cc1CCN1CCC(Nc2nc3ccccc3n2Cc2ccc(F)cc2)CC1 [Compound 12, 3-[2-[4-[[1-[(4-fluorophenyl)methyl]-1H-benzimidazol-2-yl]amino]-1-piperidinyl]ethyl]-2H-1-benzopyran-2-one] | 0.16 mg/kg | –
32 | C=COCCN1CCC(Nc2nc3ccccc3n2Cc2ccc(F)cc2)CC1 [Compound 1, N-[1-[2-(ethenyloxy)ethyl]-4-piperidinyl]-1-(4-fluorophenylmethyl)-1H-benzimidazol-2-amine] | 0.08 mg/kg | –
